In general, IC50 refers to the concentration needed to halve the response being measured. Lower therefore signals inhibition by little substance.

In one experiment the test system is RBL-2H3 cells. The experiment can be described thus: IgE-induced Beta-hexosaminidase secretion in RBL-2H3 cells. Type of experiment: cell-based. To be noted: DNP-BSA stimulation. As to the method: For the determination of IgE-induced Beta-hexosaminidase secretion, RBL-2H3 cells (SIBS) are seeded in 96 well plates at 4×10^4 cells per well and incubated in MEM media with 15% FBS and Glutamine ([…]) for 4 hours and sensitized with 0.5 ug/ml of SPE-7 overnight. Cells are washed 3 times with Tyrode's buffer and incubated in the presence or absence of various concentrations of the testing compound for 20 min at 37° C., 5% CO2. Cells are stimulated by adding 10 uL of DNP-BSA solution (150 ng/mL) to each well and incubating for 45 minutes at 37° C., 5% CO2. Then, 45 μL of the supernatant is taken and incubated with 100 μL of 1 mM 4-Nitrophenyl N-acetyl-β-D-glucosaminide (Sigma, Cat. No. N9376), which is diluted in 0.05 M citrate buffer (pH 4.5), for 1.5 hr at 37° C. The reactions are quenched by adding 185 μL of 0.05 M sodium carbonate buffer (pH 10.0). Plates are read at 405 nm on Multiskan (MK 3).

In another experiment the target is Syk kinase (Homo sapiens, UniProt P43405). The experiment can be described thus: SYK Enzymatic Assay (Z-LYTE Tyr 2 peptide). The conditions noted are these: 8 concentrations 1 μM down to 0.0003 μM. Type of experiment: biochemical. Summed up:
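Z-LYTE format using Tyr 2 peptide. After the 1 h room-temperature kinase reaction, development reagent was added for 1 h, then stop reagent. Fluorescence was read at 445 and 520 nm. Compounds were tested at 8 concentrations, 1 μM down to 0.0003 μM (1:3 dilutions).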

[1] abbreviates: Rattus norvegicus, RBL-2H3, IgE-induced Beta-hexosaminidase secretion.
[2] abbreviates: IgE-induced Beta-hexosaminidase secretion.

Regarding `CN(C)c1ccc(-c2cc3nccnc3c(OC[C@@H]3CN(S(=O)(=O)c4cccnc4)CCO3)n2)cc1` [Compound 92], the results for the IC50 in the experiment on RBL-2H3 cells (setting [1]) and against Syk kinase were 72 nM and 76 nM, respectively.

On to `CN(C)c1ccc(-c2cc3nccnc3c(OC[C@@H]3CN(S(C)(=O)=O)CCO3)n2)cc1` [Compound 94], for which the IC50 with RBL-2H3 cells (setting [2]) was determined as 40 nM; with RBL-2H3 cells (setting [1]), 22 nM; on Syk kinase, 15 nM.

Turning to `CN(C)c1ccc(-c2cc3nccnc3c(OC[C@@H]3CN(C(=O)[C@H]4CCOC4)CCO3)n2)cc1` [Compound 95], the half-maximal inhibitory concentration (IC50) with RBL-2H3 cells (setting [2]) is 71 nM; in the experiment on RBL-2H3 cells (setting [1]), 49 nM; at Syk kinase, 31 nM.

For `CN(C)c1ccc(-c2cc3nccnc3c(OC[C@@H]3CN(C(=O)C4CCCC4)CCO3)n2)cc1` [Compound 98], the IC50 in the experiment with RBL-2H3 cells (setting [1]) was 230 nM; on Syk kinase it was 55 nM.

Take `CNC(=O)CS(=O)(=O)N1CCO[C@H](COc2nc(-c3ccc(N(C)C)cc3)cc3nccnc23)C1` [Compound 99]: the values for the IC50 in the experiment with RBL-2H3 cells (setting [1]) and on Syk kinase were 106 nM and 23 nM, respectively.

Turning to `CN(C)c1ccc(-c2cc3nccnc3c(OC[C@@H]3CN(C(=O)C(F)F)CCO3)n2)cc1` [Compound 100], the IC50 is 68 nM with RBL-2H3 cells (setting [1]) and 31 nM against Syk kinase.

In the case of `Cc1nccn1CCS(=O)(=O)N1CCO[C@H](COc2nc(-c3ccc(N(C)C)cc3)cc3nccnc23)C1` [Compound 101, (S)—N,N-dimethyl-4-(5-((4-(2-(2-methyl-1H-imidazol-1-yl)ethylsulfonyl)morpholin-2-yl)methoxy)pyrido[4,3-b]pyrazin-7-yl)aniline], the half-maximal inhibitory concentration (IC50) in the experiment on RBL-2H3 cells (setting [1]) was 503 nM; on Syk kinase it was 52 nM.

In the case of `CN(C)c1ccc(-c2cc3nccnc3c(OC[C@@H]3CN(S(=O)(=O)CCN4CC[C@@H](O)C4)CCO3)n2)cc1` [Compound 102], the concentration for half-maximal inhibition (IC50) in the experiment with RBL-2H3 cells (setting [1]) was 108 nM; on Syk kinase, 38 nM.

For `CN(C)c1ccc(-c2cc3nccnc3c(OC[C@@H]3CN(S(=O)(=O)CCN4CC[C@H](O)C4)CCO3)n2)cc1` [Compound 103], the 50% inhibitory concentration (IC50) in the experiment on RBL-2H3 cells (setting [1]) came out at 325 nM; against Syk kinase it was 32 nM.

Regarding `CN(CC#N)CCS(=O)(=O)N1CCO[C@H](COc2nc(-c3ccc(N(C)C)cc3)cc3nccnc23)C1` [Compound 104], the IC50 amounted to 127 nM in the experiment with RBL-2H3 cells (setting [1]) and 38 nM against Syk kinase.

For the molecule `Cn1ncc2cc(-c3cc4nccnc4c(OC[C@@H]4CN(S(C)(=O)=O)CCO4)n3)ccc21` [Compound 105], the half-inhibitory concentration (IC50) in the experiment with RBL-2H3 cells (setting [1]) was 77 nM; against Syk kinase, 39 nM.

On to `CN(C)c1ccc(-c2cc3nccnc3c(OC[C@@H]3CN(S(C)(=O)=O)CCO3)n2)cc1Cl` [Compound 108], for which the half-inhibitory concentration (IC50) was found to be 52 nM in the experiment on RBL-2H3 cells (setting [1]) and 19 nM at Syk kinase.

For the molecule `CS(=O)(=O)N1CCO[C@H](COc2nc(-c3ccc4c(c3)OCCO4)cc3nccnc23)C1` [Compound 109], the IC50 was 131 nM in the experiment with RBL-2H3 cells (setting [1]) and 97 nM on Syk kinase.

As to `CS(=O)(=O)N1CCO[C@H](COc2nc(-c3ccc4c(c3)OCO4)cc3nccnc23)C1` [Compound 110], the figures for the half-inhibitory concentration (IC50) in the experiment with RBL-2H3 cells (setting [1]) and against Syk kinase were 163 nM and 211 nM, respectively.

As for `CS(=O)(=O)N1CCO[C@H](COc2nc(-c3ccc4ncccc4c3)cc3nccnc23)C1` [Compound 111], the IC50 with RBL-2H3 cells (setting [1]) was determined as 119 nM; at Syk kinase it was 117 nM.

As for `CCN(CC)c1ccc(-c2cc3nccnc3c(OC[C@@H]3CN(S(C)(=O)=O)CCO3)n2)cc1` [Compound 119], the concentration for half-maximal inhibition (IC50) was determined as 34 nM in the experiment on RBL-2H3 cells (setting [1]) and 16 nM against Syk kinase.

`Cn1ccc2ccc(-c3cc4nccnc4c(OC[C@@H]4CN(S(C)(=O)=O)CCO4)n3)cc21` [Compound 120]: the IC50 in the experiment with RBL-2H3 cells (setting [1]) is 41 nM; against Syk kinase, 61 nM.

Take `CC(=O)N1CCN(c2ccc(-c3cc4nccnc4c(OC[C@@H]4CN(S(C)(=O)=O)CCO4)n3)cc2)CC1` [Compound 122]: the half-inhibitory concentration (IC50) in the experiment with RBL-2H3 cells (setting [1]) worked out at 73 nM; against Syk kinase, 15 nM.

For `CN(C)c1ccc(-c2cc3nccnc3c(O[C@@H]3CCOC3)n2)cc1` [Compound 123], the IC50 with RBL-2H3 cells (setting [1]) came to 35 nM; on Syk kinase, 30 nM.

As to `CS(=O)(=O)N1CCC(c2ccc(-c3cc4nccnc4c(O[C@@H]4CCOC4)n3)cc2)CC1` [Compound 124], the IC50 in the experiment with RBL-2H3 cells (setting [1]) was 45 nM; against Syk kinase, 33 nM.

As for `CN1CCN(c2ccc(-c3cc4nccnc4c(O[C@@H]4CCOC4)n3)cc2)CC1` [Compound 125], the IC50 in the experiment on RBL-2H3 cells (setting [1]) amounted to 43 nM; against Syk kinase, 31 nM.

On to `COc1cc(-c2cc3nccnc3c(OC[C@@H]3CN(S(C)(=O)=O)CCO3)n2)ccc1OCCN(C)C` [Compound 126], for which the IC50 in the experiment with RBL-2H3 cells (setting [1]) is 366 nM; on Syk kinase, 41 nM.

Regarding `CN(C)c1ccc(-c2cc3nccnc3c(OC3CCCOC3)n2)cc1` (stereo not drawn) [Compound 127], the IC50 came out at 77 nM in the experiment on RBL-2H3 cells (setting [1]) and 58 nM against Syk kinase.

As for `CNC(=O)COc1ccc(-c2cc3nccnc3c(OC[C@@H]3CN(S(C)(=O)=O)CCO3)n2)cc1` [Compound 129], the figures for the IC50 in the experiment with RBL-2H3 cells (setting [1]) and on Syk kinase were 230 nM and 50 nM, respectively.

Take `CCN(CC)c1ccc(-c2cc3nccnc3c(OC[C@@H]3CN(C(C)=O)CCO3)n2)cc1` [Compound 131]: the IC50 in the experiment with RBL-2H3 cells (setting [1]) amounted to 39 nM; against Syk kinase it was 28 nM.

Consider `CNc1ccc(-c2cc3nccnc3c(O[C@@H]3CCOC3)n2)cc1` [Compound 133], for which the IC50 with RBL-2H3 cells (setting [1]) is 24 nM; at Syk kinase, 45 nM.

For `Cc1cc(-c2cc3nccnc3c(OC[C@@H]3CN(S(C)(=O)=O)CCO3)n2)ccc1N(C)C` [Compound 134], the IC50 was determined as 15 nM in the experiment on RBL-2H3 cells (setting [1]) and 3 nM against Syk kinase.

On to `CN(C)c1ccc(-c2cc3nccnc3c(OC[C@@H]3CN(C(N)=O)CCO3)n2)cc1` [Compound 136], for which the values for the IC50 with RBL-2H3 cells (setting [1]) and on Syk kinase were 99 nM and 25 nM, respectively.

As to `CNC(=O)N1CCO[C@H](COc2nc(-c3ccc(N(C)C)cc3)cc3nccnc23)C1` [Compound 137], the values for the IC50 in the experiment on RBL-2H3 cells (setting [1]) and against Syk kinase were 45 nM and 28 nM, respectively.

On to `CC(=O)N1CCO[C@H](COc2nc(-c3ccc(N(C)C)c(F)c3)cc3nccnc23)C1` [Compound 139], for which the IC50 was 194 nM in the experiment on RBL-2H3 cells (setting [2]), 119 nM in the experiment with RBL-2H3 cells (setting [1]) and 95 nM against Syk kinase.

On to `CC(=O)N1CCO[C@H](COc2nc(-c3ccc(N(C)C)c(Cl)c3)cc3nccnc23)C1` [Compound 140], for which the concentration for half-maximal inhibition (IC50) was found to be 31 nM in the experiment with RBL-2H3 cells (setting [1]) and 52 nM against Syk kinase.

For `CC(=O)N1CCO[C@H](COc2nc(-c3ccc(NC(C)C)cc3)cc3nccnc23)C1` [Compound 141], the results for the IC50 with RBL-2H3 cells (setting [1]) and against Syk kinase were 81 nM and 98 nM, respectively.

In the case of `COc1ccc(-c2cc3nccnc3c(OC[C@@H]3CN(C(N)=O)CCO3)n2)cc1OC` [Compound 142, (S)-2-(((7-(3,4-dimethoxyphenyl)pyrido[3,4-b]pyrazin-5-yl)oxy)methyl)morpholine-4-carboxamide], the concentration for half-maximal inhibition (IC50) with RBL-2H3 cells (setting [1]) came to 950 nM; on Syk kinase, 68 nM.

`CNC(=O)N1CCO[C@H](COc2nc(-c3ccc(OC)c(OC)c3)cc3nccnc23)C1` [Compound 143]: the figures for the half-inhibitory concentration (IC50) with RBL-2H3 cells (setting [1]) and against Syk kinase were 244 nM and 80 nM, respectively.

As for `CC(=O)N1CCO[C@H](COc2nc(-c3ccc(N(C)C(C)C)cc3)cc3nccnc23)C1` [Compound 144, (S)-1-(2-(((7-(4-(isopropyl(methyl)amino)phenyl)pyrido[3,4-b]pyrazin-5-yl)oxy)methyl)morpholino)ethanone], the half-inhibitory concentration (IC50) in the experiment on RBL-2H3 cells (setting [1]) turned out to be 80 nM; against Syk kinase, 57 nM.

For `CC(=O)N1CCO[C@H](COc2nc(-c3ccc4c(c3)OCCN4C)cc3nccnc23)C1` [Compound 148], the values for the half-maximal inhibitory concentration (IC50) with RBL-2H3 cells (setting [1]) and against Syk kinase were 137 nM and 95 nM, respectively.

Values taken from patent US20170152258A9, “Substituted Pyridopyrazines as Syk Inhibitors” (HUTCHISON MEDIPHARMA LIMITED, priority 2012, published 2017).
